Source: PubChem BioAssay AID256 (DTP/NCI, 2004)
“And” between values parts separate entries of the source, which are not always exact repeats. Equal values may be shown once. Toxic doses and inconclusive results are not listed. The calls were made as follows: active = survival T/C of 150% or more; inactive = T/C below 125% in these data.

Test system: CD2F1 mice, L1210 leukemia ip, survival T/C
Experiment: NCI In Vivo Anticancer Drug Screen. Data for tumor model L1210 Leukemia (intraperitoneal) in CD2F1 (CDF1) mice
Conditions: higher = longer survival
Method in brief: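 Antitumor effect is scored in animals hosting a serially transplanted tumor. Values compare compound-dosed animals against vehicle-only controls as a simple quotient.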

[1] = endpoint: mean survival time, dose: 50.0 mg/kg/injection, schedule: Q01DX009 (ip), vehicle: saline with Tween-80
[2] = endpoint: mean survival time, dose: 100.0 mg/kg/injection, schedule: Q01DX009 (ip), vehicle: saline with Tween-80
[3] = endpoint: mean survival time, dose: 200.0 mg/kg/injection, schedule: Q01DX009 (ip), vehicle: saline with Tween-80
[4] = endpoint: mean survival time, dose: 100.0 mg/kg/injection, schedule: Q01DX001 (ip), vehicle: saline with Tween-80
[5] = endpoint: mean survival time, dose: 200.0 mg/kg/injection, schedule: Q01DX001 (ip), vehicle: saline with Tween-80
[6] = endpoint: mean survival time, dose: 100.0 mg/kg/injection, schedule: Q04DX003 (ip), vehicle: saline
[7] = endpoint: mean survival time, dose: 200.0 mg/kg/injection, schedule: Q04DX003 (ip), vehicle: Klucel (hydroxypropylcellulose) (HPC)
[8] = endpoint: mean survival time, dose: 100.0 mg/kg/injection, schedule: Q04DX003 (ip), vehicle: saline with Tween-80
[9] = endpoint: mean survival time, dose: 200.0 mg/kg/injection, schedule: Q04DX003 (ip), vehicle: saline with Tween-80
[10] = endpoint: mean survival time, dose: 400.0 mg/kg/injection, schedule: Q04DX003 (ip), vehicle: saline with Tween-80
[11] = endpoint: mean survival time, dose: 25.0 mg/kg/injection, schedule: Q01DX009 (ip), vehicle: saline with Tween-80
[12] = endpoint: mean survival time, dose: 400.0 mg/kg/injection, schedule: Q01DX009 (ip), vehicle: saline with Tween-80
[13] = endpoint: mean survival time, dose: 100.0 mg/kg/injection, schedule: Q01DX001 (ip), vehicle: saline

Measured: T/C

C1CCC(C2CCCC[N-]2)[N-]C1.[Cl][Pt].[NH-]C(CC(N)=O)C(=O)O (stereo not given)
inactive: endpoint: median survival time, dose: 10.0 mg/kg/injection, schedule: Q04DX003 (ip), vehicle: saline 101 % of control | endpoint: median survival time, dose: 20.0 mg/kg/injection, schedule: Q04DX003 (ip), vehicle: saline 93 % of control | endpoint: median survival time, dose: 40.0 mg/kg/injection, schedule: Q04DX003 (ip), vehicle: saline 98 % of control | endpoint: median survival time, dose: 80.0 mg/kg/injection, schedule: Q04DX003 (ip), vehicle: saline 91 % of control and 104 % of control | endpoint: median survival time, dose: 160.0 mg/kg/injection, schedule: Q04DX003 (ip), vehicle: saline 95 % of control | endpoint: median survival time, dose: 320.0 mg/kg/injection, schedule: Q04DX003 (ip), vehicle: saline 86 % of control

CCC/C=C/CCOC(=N)C(Cl)(Cl)Cl
inactive: [1] 92 % of control | [2] 92 % of control | [3] 88 % of control

CCNC(=S)N1c2c(nc(N)[nH]c2=O)NCC1CNc1ccc(C(=O)NC(CCC(=O)O)C(=O)O)cc1 (stereo not given)
inactive: endpoint: mean survival time, dose: 100.0 mg/kg/injection, schedule: Q01DX001 (ip), vehicle: alkali diluted with saline 98 % of control | endpoint: mean survival time, dose: 200.0 mg/kg/injection, schedule: Q01DX001 (ip), vehicle: alkali diluted with saline 101 % of control | endpoint: mean survival time, dose: 400.0 mg/kg/injection, schedule: Q01DX001 (ip), vehicle: alkali diluted with saline 103 % of control

CN1COc2cc3c(cc2C1)OCN(C)C3
inactive: [4] 100 % of control | [5] 100 % of control

O=C(N/N=C/c1ccc(Cl)cc1Cl)c1ccccc1
inactive: endpoint: mean survival time, dose: 50.0 mg/kg/injection, schedule: Q01DX009 (ip), vehicle: Klucel (hydroxypropylcellulose) (HPC) 110 % of control | endpoint: mean survival time, dose: 100.0 mg/kg/injection, schedule: Q01DX009 (ip), vehicle: Klucel (hydroxypropylcellulose) (HPC) 103 % of control | endpoint: mean survival time, dose: 200.0 mg/kg/injection, schedule: Q01DX009 (ip), vehicle: Klucel (hydroxypropylcellulose) (HPC) 86 % of control

CCOC(OCC)c1cc[n+](CCc2ccc(OC)c(OC)c2)cc1
inactive: [6] 96 % of control

CN=C(Nc1ccc(OC)c2ccccc12)SC
inactive: endpoint: mean survival time, dose: 100.0 mg/kg/injection, schedule: Q04DX003 (ip), vehicle: Klucel (hydroxypropylcellulose) (HPC) 89 % of control | [7] 91 % of control

CCOC1([N+](=O)[O-])c2ccccc2-c2nc3ccccc3cc21 (stereo not given)
inactive: [7] 97 % of control

O=C(O)/C=C/C(=O)Nc1ccc(I)cc1
inactive: [2] 95 % of control | [8] 104 % of control | [3] 111 % of control | [9] 98 % of control | [10] 97 % of control

O=C1C(Cl)=C(Cl)C(=O)C(Cl)=C1Cl
inactive: [11] 101 % of control | [1] 102 % of control | [2] 98 % of control

O=C(NC(=S)Nc1cccc2ccccc12)c1cccc(Br)c1
inactive: endpoint: mean survival time, dose: 50.0 mg/kg/injection, schedule: Q04DX002 (ip), vehicle: saline with Tween-80 89 % of control and 98 % of control | [4] 96 % of control | [2] 98 % of control and 104 % of control | [8] 96 % of control | [5] 95 % of control | [3] 96 % of control and 98 % of control | [9] 100 % of control | endpoint: mean survival time, dose: 400.0 mg/kg/injection, schedule: Q01DX001 (ip), vehicle: saline with Tween-80 95 % of control | [12] 102 % of control and 106 % of control | endpoint: mean survival time, dose: 400.0 mg/kg/injection, schedule: Q04DX002 (ip), vehicle: saline with Tween-80 90 % of control and 95 % of control | [10] 96 % of control

CCOC(=O)CC1=Cc2c(OC)ccc(OC)c2CC1
inactive: endpoint: mean survival time, dose: 12.5 mg/kg/injection, schedule: Q01DX009 (ip), vehicle: other 95 % of control | endpoint: mean survival time, dose: 25.0 mg/kg/injection, schedule: Q01DX009 (ip), vehicle: other 106 % of control | endpoint: mean survival time, dose: 50.0 mg/kg/injection, schedule: Q01DX009 (ip), vehicle: other 98 % of control | endpoint: mean survival time, dose: 100.0 mg/kg/injection, schedule: Q01DX009 (ip), vehicle: other 92 % of control | endpoint: mean survival time, dose: 200.0 mg/kg/injection, schedule: Q01DX009 (ip), vehicle: other 88 % of control

COc1cc(/C=C/C(C)=N/Nc2ccc([N+](=O)[O-])cc2[N+](=O)[O-])ccc1O
inactive: [8] 95 % of control | [9] 94 % of control | [10] 95 % of control

CC(C)C1=CC23CCC4C(C)(C(=O)O)CCCC4(C)C2CC1OO3 (stereo not given)
inactive: [8] 93 % of control | [9] 92 % of control | [10] 95 % of control

N=C(c1ccccc1)c1ccccc1
inactive: [2] 100 % of control | [3] 102 % of control | [12] 102 % of control

Nc1nc(NC(c2ccc(Cl)cc2)c2ccc(Cl)cc2)c2[nH]cnc2n1
inactive: endpoint: mean survival time, dose: 75.0 mg/kg/injection, schedule: Q01DX001 (ip), vehicle: other 103 % of control | endpoint: mean survival time, dose: 150.0 mg/kg/injection, schedule: Q01DX001 (ip), vehicle: other 101 % of control

CC(=O)C(CCN(C)C)(c1ccccc1)c1ccccc1
inactive: endpoint: mean survival time, dose: 75.0 mg/kg/injection, schedule: Q01DX001 (ip), vehicle: saline 102 % of control | endpoint: mean survival time, dose: 150.0 mg/kg/injection, schedule: Q01DX001 (ip), vehicle: saline 91 % of control

CCCCCCCCCCCCCCCCCCN1CCOCC1
inactive: endpoint: mean survival time, dose: 12.5 mg/kg/injection, schedule: Q01DX009 (ip), vehicle: saline with Tween-80 94 % of control | [11] 102 % of control | [1] 94 % of control

NC(=S)N/N=C/c1cccnc1
inactive: endpoint: mean survival time, dose: 50.0 mg/kg/injection, schedule: Q01DX009 (ip), vehicle: saline 109 % of control | endpoint: mean survival time, dose: 100.0 mg/kg/injection, schedule: Q01DX009 (ip), vehicle: saline 101 % of control | endpoint: mean survival time, dose: 200.0 mg/kg/injection, schedule: Q01DX009 (ip), vehicle: saline 106 % of control

Oc1c(Br)cc(Br)cc1/C=N/c1nc(-c2ccccc2)cs1.Oc1c(Br)cc(Br)cc1/C=N/c1nc(-c2ccccc2)cs1.[Co]
inactive: endpoint: mean survival time, dose: 25.0 mg/kg/injection, schedule: Q01DX001 (ip), vehicle: saline 100 % of control | endpoint: mean survival time, dose: 50.0 mg/kg/injection, schedule: Q01DX001 (ip), vehicle: saline 100 % of control | [13] 87 % of control

O=C1C(Cl)=C(c2ccccc2)C(=O)C(Cl)=C1c1ccccc1
inactive: endpoint: mean survival time, dose: 50.0 mg/kg/injection, schedule: Q04DX003 (ip), vehicle: saline with Tween-80 103 % of control | [8] 109 % of control | [9] 107 % of control

O=[N+]([O-])c1ccc(-c2ccccc2)cc1
inactive: [8] 100 % of control | [9] 96 % of control | [10] 97 % of control

C=C=CCCCCCCCC
inactive: [8] 102 % of control | [9] 98 % of control | [10] 105 % of control

CC1(C)OC1(C)C
inactive: [6] 97 % of control | endpoint: mean survival time, dose: 200.0 mg/kg/injection, schedule: Q04DX003 (ip), vehicle: saline 104 % of control | endpoint: mean survival time, dose: 400.0 mg/kg/injection, schedule: Q04DX003 (ip), vehicle: saline 97 % of control

CCOC(=O)/C(C#N)=C1/C=CC=CN1
inactive: [2] 98 % of control | [8] 102 % of control | [3] 102 % of control | [9] 110 % of control | [12] 100 % of control | [10] 103 % of control

ClCCOC(c1ccc(Cl)cc1)c1ccc(Cl)cc1
inactive: endpoint: mean survival time, dose: 100.0 mg/kg/injection, schedule: Q04DX003 (ip), vehicle: saline + alcohol 96 % of control | endpoint: mean survival time, dose: 200.0 mg/kg/injection, schedule: Q04DX003 (ip), vehicle: saline + alcohol 94 % of control | endpoint: mean survival time, dose: 400.0 mg/kg/injection, schedule: Q04DX003 (ip), vehicle: saline + alcohol 100 % of control

CC(C)CCNC(=O)CI
inactive: [13] 101 % of control | endpoint: mean survival time, dose: 200.0 mg/kg/injection, schedule: Q01DX001 (ip), vehicle: saline 95 % of control

CC(=O)CC(C)=NCC(C)N=C(C)CC(C)=O.c1cc[c]([Sn][c]2ccccc2)cc1 (stereo not given)
inactive: endpoint: mean survival time, dose: 2.5 mg/kg/injection, schedule: Q01DX009 (ip), vehicle: saline with Tween-80 93 % of control | endpoint: mean survival time, dose: 5.0 mg/kg/injection, schedule: Q01DX001 (ip), vehicle: saline with Tween-80 98 % of control | endpoint: mean survival time, dose: 5.0 mg/kg/injection, schedule: Q01DX009 (ip), vehicle: saline with Tween-80 107 % of control | endpoint: mean survival time, dose: 10.0 mg/kg/injection, schedule: Q01DX001 (ip), vehicle: saline with Tween-80 103 % of control

Cc1ccccc1/C1=C/CCCCCC1
inactive: endpoint: mean survival time, dose: 100.0 mg/kg/injection, schedule: Q01DX001 (ip), vehicle: saline sonified 107 % of control | [8] 102 % of control | endpoint: mean survival time, dose: 200.0 mg/kg/injection, schedule: Q01DX001 (ip), vehicle: saline sonified 94 % of control | [9] 104 % of control | endpoint: mean survival time, dose: 400.0 mg/kg/injection, schedule: Q01DX001 (ip), vehicle: saline sonified 89 % of control | [10] 93 % of control
